# Columns and labels:
# TrkA [1] = assay: Co-immunoprecipitation of HA-Karet constructs with TrkA; assay type: binding; conditions: co-transfected Hek or NNR5 cells, anti-HA IP
# Procedure: (§1) FIG. 3c is a co-immunoprecipitation assay depicting co-immunoprecipitation of HA-Karet with TrkA in COS cells. Karet tagged with the HA epitope was immunoprecipitated with anti-HA antibody and the blot was incubated with anti-TrkA (RTA). In control experiments the HA-Karet was substituted with vector.
# (§2) FIG. 3d is a co-immunoprecipitation assay depicting interaction of Karet and TrkA in NNR5 cells transfected with TrkA.
# (§3) FIG. 3e is a co-immunoprecipitation assay depicting co-immunoprecipitation of HA-Karet with TricA in co-transfected NNR5 cells immunoprecipitated with anti-HA (Roche) and Western blot with the anti-TrkA antibody C14 (Santa Cruz).
# (§4) FIGS. 4a-c are co-immunoprecipitation assay results depicting the influence of NGF treatment on TrkA-Karet interaction. FIG. 4a depicts that TrkA-Karet interaction occurred prior to NGF treatment and was enhanced after ligand stimulation for 10 minutes (10 m) or 2 hours (2 h). HA-Karet was electroporated into cell line PC12, and the cells were treated with 50 ng/ml NGF for the indicated time periods in order to activate p75 and TrkA. Karet tagged with the HA epitope was immunoprecipitated with anti-HA antibody, the precipitated proteins were separated electrophoretically, and gel blots were incubated with anti-TrkA antibody (RTA). FIG. 4b depicts that necdin seems to compete with TrkA for binding to Karet. myc-Karet was electroporated into necdin stable cell line, and the cells were treated with 50 ng/ml NGF for the indicated time periods. Karet tagged with the myc epitope was immunoprecipitated with anti-myc antibody, the precipitated proteins were separated electrophoretically, and gel blots were incubated with anti-TrkA antibody (RTA). […] A blot from the same experiment was stripped and re-incubated with anti-necdin antibody. The arrow indicates the glycosylated form of TrkA (molecular weight of 140 kDa).
# (§5) FIG. 7b is an immunoprecipitation assay depicting that the PTB domain-containing Karet(1-228) mutant, but not Karet(228-453) co-immunoprecipitates with TrkA in NNR5 cells. Truncation mutants tagged with the HA epitope were immunoprecipitated with anti-HA antibody, the precipitated proteins were separated electrophoretically, and gel blots were incubated with anti-TrkA (RTA).
# (§6) FIGS. 24a-d depict co IP of Ha Karet with TrkA, TrkB, TrkC, p75 from co-transfected Hek cells. Cells were co-transfected with Ha Karet or control vector and TrkA, TrkB, TrkC or p75. Cells were lysed with NP40, the HA-beads (beads conjugated to anti-HA antibody) were blocked with Hek lysate, and elution was done for 30 minutes at 37° C. […]
# PC12 cells [2] = assay: Viability / death of PC12 cells after transfection with Karet constructs (Live/dead kit, FACS, cell counting, Hoechst); assay type: cell-based, rat
# Procedure: FIG. 5a is a bar-graph of FACS data depicting 50 percent death of PC12 cells overexpressing Karet. Shown is a FACS analysis of PC12 viability 15 hours after transfection with Ha-Karet or control vector using Live/dead kit (Molecular probes), T-test=0.003.
# FIG. 5b is a series of fluorescence photomicrographs depicting death of PC12 cells caused by Karet overexpression. Shown is a live/dead kit analysis of PC12 cells overexpressing Ha-Karet (left panels) versus control vector-transfected cells (right panels). Live cell are stained in green, dead cells are stained in red. Upper panels each show red fluorescence only (left picture) and green fluorescence only (right picture) pairs, and lower panels each show combined red and green fluorescence (left picture) and light microscopy images (right picture) pairs.
# FIG. 5d is a pair of Hoechst stain histology photomicrographs depicting condensation of chromatin indicating apoptosis in PC12 cells expressing Karet, but not in control cells transfected with vector only.
# FIG. 5e is a histogram depicting that Karet expression induces cell death of TrkA expressing cells, which is increased by NGF treatment and is decreased by necdin. PC12 or PC12 necdin stable cell line were electroporated with Karet or GFP control and incubated with or without 50 ng/ml NGF for 12 hours. Cells were counted and result presented as percent of control.
# PC12 cells were transfected with Ha Karet, PTB, non PTB and their combinations. Cells were analyzed by FACS 18 hours after transfection using the dead/live kit. N=3; * p<0.05; **p<0.001;
# The lower panel is a histogram depicting that Karet-mediated cell death correlates well with expression levels of the Karet protein. PC12 Tet-on cells were electroporated with Ha-Karet cloned under inducible promoter and incubated for 24 hours with different concentrations of doxycycline. Cells transfected with Karet but not treated with doxycycline served as control. Cells were counted and the results were determined as percent of control. The upper panel is a control Western blot depicting increased Karet expression with increased concentrations of doxycycline. Cells transfected with Karet and treated with doxycycline were lysed in NP-40 buffer and subjected to SDS-PAGE analysis. Similar amount of protein was loaded and blotted for Karet expression with Ha antibody. Proteins levels were checked with anti-tubulin antibody.
# FIG. 18a—PC12 were transfected with Ha Karet, Karet F217V, PTB F217V or a control vector (pcDNA3) and 18 hours after transfection the effect of Karet or Karet mutants on cell death was determined using the dead/live kit and FACS analysis. Results are presented in percentages as compared to cells transfected with the control vector. N=3 **P<0.001. […] FIG. 18b—Cells were lysed 24 hours after transfection, fractionated on SDS-PAGE and immunoblot for anti Ha (Covance).
# FIG. 19 is a histogram depicting FACS analysis of Karet-induced death. PC12 cells were co-transfected with Karet and the PTB, non-PTB or the F217V mutant at different ratios (1:1, 1:2, 1:3) and 18 hours after transfection the cells were analyzed by FACS using the dead/live kit.
# Viability of cells was evaluated using the Live/dead viability/cytotoxicity kit (Cat. No. L-3224), Molecular Probes, Inc., Eugene, Oreg., USA, according to manufacturer's instructions.
# PC12 cells [3] = assay: Effect of pathway proteins and inhibitors on Karet-induced cell death in PC12 cells; assay type: cell-based, rat
# [4] = system: human medulloblastoma cells (MED 283) stably transfected to express TrkA; conditions: cited from earlier work
# TrkA [5] = target: T1, TrkA (Rattus norvegicus, UniProt P35739); assay: Co-immunoprecipitation of HA-Karet constructs with TrkA; assay type: binding; conditions: PC12 cells transfected with Karet; 50 ng/ml NGF, 10 minutes and 2 hours
# T1 construct: expressed in transfected cells
# T1 sequence (P35739 33-799): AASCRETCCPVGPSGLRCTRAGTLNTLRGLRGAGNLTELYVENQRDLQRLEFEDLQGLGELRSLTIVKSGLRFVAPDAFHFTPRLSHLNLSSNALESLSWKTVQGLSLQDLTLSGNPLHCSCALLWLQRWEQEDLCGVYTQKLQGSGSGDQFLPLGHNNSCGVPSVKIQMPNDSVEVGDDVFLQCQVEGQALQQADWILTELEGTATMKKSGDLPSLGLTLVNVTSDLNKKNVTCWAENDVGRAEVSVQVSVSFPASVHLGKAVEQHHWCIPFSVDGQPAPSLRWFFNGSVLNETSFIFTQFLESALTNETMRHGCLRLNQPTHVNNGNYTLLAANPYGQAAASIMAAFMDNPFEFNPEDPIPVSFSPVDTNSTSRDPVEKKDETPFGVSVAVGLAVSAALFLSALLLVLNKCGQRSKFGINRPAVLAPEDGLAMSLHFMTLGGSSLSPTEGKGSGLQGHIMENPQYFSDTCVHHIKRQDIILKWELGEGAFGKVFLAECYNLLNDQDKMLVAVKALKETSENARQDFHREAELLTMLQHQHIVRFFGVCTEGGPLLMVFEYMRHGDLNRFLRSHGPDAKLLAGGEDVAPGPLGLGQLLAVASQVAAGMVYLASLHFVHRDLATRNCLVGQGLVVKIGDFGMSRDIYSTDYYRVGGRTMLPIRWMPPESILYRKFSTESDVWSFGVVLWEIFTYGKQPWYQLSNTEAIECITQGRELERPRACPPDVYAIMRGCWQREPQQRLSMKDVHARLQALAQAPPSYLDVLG
# Procedure: as §1, §2, §3, §4, §5, §6
compound,measurement,setting,value
"Karet(228-453): C-terminal truncation mutant of mouse Karet, amino acid residues 228-453 (SEQ ID NO:8)",co-immunoprecipitation / interaction with TrkA,TrkA [1],does not
same,effect on Karet-induced death in competition assay,"PC12 cells [2]; PC12 co-transfected with Karet at ratios 1:1, 1:2, 1:3, FACS 18 hours after transfection",reduced Karet-induced death
"C[S+]([O-])c1ccc(-c2nc(-c3ccncc3)c(-c3ccc(F)cc3)[nH]2)cc1 (centres unmarked) [SB203580, reference compound]",effect on cell death induction by Karet,"PC12 cells [3]; PC12 electroporated with Karet, 10 micromolar SB203580",did not affect cell death induction
"COC(=O)[C@@]1(O)C[C@H]2O[C@]1(C)n1c3ccccc3c3c4c(c5c6ccccc6n2c5c31)C(=O)NC4 [K252a, reference compound]",effect on cell death effect of Karet,"PC12 cells [3]; PC12 cells expressing Karet, 12 hours, different concentrations of K252A",diminished the cell death effect of Karet
same,effect on NGF-induced apoptosis,[4]; TrkA-medulloblastoma cells,inhibited
"NGF: nerve growth factor, neurotrophin ligand of TrkA",effect of NGF on TrkA-Karet interaction,TrkA [5],enhanced
same,cell death on NGF treatment,[4]; MED 283 cells expressing TrkA,significant levels of cell death
same,additional increase of death by NGF treatment,"PC12 cells [2]; PC12 cells overexpressing Karet, 50 ng/ml NGF, 12 hours",30%
